“Also recorded” adds a separate entry of the source. Where two headings read alike, the source gives them in different places.
Columns and labels:
fibroblasts = format: cell-based
recombinant cathepsin L = recombinant cathepsin L (Homo sapiens, UniProt P07711); assay: Cathepsin L assay; format: biochemical; details: 10 μM and dose-response
EBOV = details: cited from earlier work
Ebola VLP = format: cell-based, Ebola virus
NPC1 protein = format: cell-based
recombinant cathepsin B = recombinant cathepsin B (Homo sapiens, UniProt P07858); assay: Cathepsin B assay; format: biochemical; details: 10 μM and dose-response
[1] = read-out: IC50 of previously reported EBOV inhibitors in vitro

Chain of recombinant cathepsin L (P07711 114-333): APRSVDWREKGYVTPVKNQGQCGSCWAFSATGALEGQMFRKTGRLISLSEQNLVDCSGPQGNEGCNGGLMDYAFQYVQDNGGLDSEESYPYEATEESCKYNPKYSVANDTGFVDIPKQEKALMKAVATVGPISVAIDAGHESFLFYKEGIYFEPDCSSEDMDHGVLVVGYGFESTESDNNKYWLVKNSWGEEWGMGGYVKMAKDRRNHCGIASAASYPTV

Structure (SMILES) | LysoTracker staining (enlargement of lysosome size) (fibroblasts) | also measured
Cc1ccc(CN2CCCN(C)C3(CCN(C)CC3)C2)cc1C [ZINC67869167] | increased LysoTracker staining; also recorded: induced enlargement of lysosomes | 
CN1[C@@H]2CC[C@H]1C[C@@H](OC1c3ccccc3CCc3ccccc31)C2 [Deptropine] | increased LysoTracker staining | Inhibition of enzymatic activity of cathepsin L (recombinant cathepsin L): inhibited; also recorded: blocking cathepsin L activity
Cc1cn(-c2cc(NC(=O)c3ccc(C)c(Nc4nccc(-c5cccnc5)n4)c3)cc(C(F)(F)F)c2)cn1 [nilotinib] |  | IC50 (EBOV; [1]): 24300 nM
CC(=O)N(C)C1(c2ccccc2)CCN(CCC[C@]2(c3ccc(Cl)c(Cl)c3)CCCN(C(=O)c3ccccc3)C2)CC1 [Osanetant] | increased LysoTracker staining; also recorded: induces the enlargement of lysosomes | 
Cc1[nH]c2c(CN3CC(CO)C(CN4CCCC4)C3)cccc2c1C (centres unmarked) [ZINC91973695] | increased LysoTracker staining; also recorded: induced enlargement of lysosomes | 
COc1cc2nc(N3CCCN(C)CC3)nc(NC3CCN(Cc4ccccc4)CC3)c2cc1OC [BIX-01294] | increased LysoTracker staining | Potency (Ebola VLP): nanomolar range; also recorded: sub-micromolar
CC[C@]1(O)C[C@@H]2CN(CCc3c([nH]c4ccccc34)[C@@](C(=O)OC)(c3cc4c(cc3OC)N(C)[C@H]3[C@@](O)(C(=O)OC)[C@H](OC(C)=O)[C@]5(CC)C=CCN6CC[C@]43[C@@H]65)C2)C1 [Vinblastine] |  | IC50 (EBOV; read-out: Published Compound (IC50)): 48 nM
CC(C)(C)c1ccc(C(=O)CCCN2CCC(OC(c3ccccc3)c3ccccc3)CC2)cc1 [Ebastine] | increased LysoTracker staining | 
CCN(CC)CCO[C@H]1CC[C@@]2(C)C(=CC[C@@H]3[C@@H]2CC[C@]2(C)C(=O)CC[C@@H]32)C1.Cl [U18666A, 3-β-(2-[diethylamino]ethoxy)-androst-5-en-17-one, monohydrochloride] | increased LysoTracker staining | Cholesterol accumulation (filipin staining), impairment of NPC1 protein function (NPC1 protein): increased filipin staining
COc1ccc2cc1Oc1ccc(cc1)C[C@H]1c3cc(c(OC)cc3CCN1C)Oc1c(OC)c(OC)cc3c1[C@H](C2)N(C)CC3 [Tetrandrine] | increased LysoTracker staining | 
COc1cc2c(Oc3ccc4[nH]c(C)cc4c3F)ncnc2cc1OCCCN1CCCC1 [Cediranib] | increased LysoTracker staining | 
CN(C)c1ccccc1CN1CCCN(Cc2ccccc2N(C)C)C1c1ccncc1 [GANT61] | increased LysoTracker staining; also recorded: caused enlargement of lysosomes | Inhibition of enzymatic activity of cathepsin L (recombinant cathepsin L): inhibited; Inhibition of enzymatic activity of cathepsin B (recombinant cathepsin B): inhibited
COC(=O)Nc1nc2ccc(C(=O)c3cccs3)cc2[nH]1 [nocodazole] |  | IC50 of previously reported EBOV inhibitors in vitro (EBOV): sub-micromolar
CC[C@]1(O)C[C@@H]2CN(CCc3c([nH]c4ccccc34)[C@@](C(=O)OC)(c3cc4c(cc3OC)N(C)[C@H]3[C@@](O)(C(N)=O)[C@H](O)[C@]5(CC)C=CCN6CC[C@]43[C@@H]65)C2)C1 [Vindesine] |  | Potency (Ebola VLP): nanomolar range
CCN(CC)CCNC(=O)c1c(C)[nH]c(/C=C2\C(=O)Nc3ccc(F)cc32)c1C [sunitinib] |  | IC50 (EBOV; [1]): 1910 nM
